Experiment: Effect of fenofibrate and orlistat co-administration on body weight of mice fed a high-fat diet
Type: in vivo
Details: for Gain: body weight gain over 6 weeks, * p<0.05 relative to Group 5 (standard diet); for Gain / Body weight after 6 weeks: mice fed with high-fat diet, drug p.o. mixed with the diet (fenofibrate 25 mg/kg, orlistat 2.5 mg/kg), mean±sem; for Body weight after 6 weeks: in g (unit assumed)
Method: This study was designed to evaluate the effects of using a combination of fenofibrate and orlistat on body weight. Method Animals: Mice weighing approximately 20 g were received from CERJ. They were put into individual cages in a temperature-, humidity- and light-controlled room (21-23° C., 12-12 h light-dark cycle). […] After acclimatization, they were randomized into groups of 20 animals, based on body weight. The experimental groups were: • a Group 1: mice fed with high-fat diet • Group 2: mice fed with high-fat diet, treated with fenofibrate 25 mg/kg p.o., mixed with the diet • Group 3: mice fed with high-fat diet, treated with orlistat 2.5 mg/kg p.o., mixed with the diet • Group 4: mice fed with high-fat diet, treated with fenofibrate 25 mg/kg p.o. and orlistat 2.5 mg/kg p.o., mixed with the diet • Group 5: mice fed with standard diet Statistics: All data are presented as mean±sem. Results were subjected to Dunnett's t test. A p<0.05 was considered significant.

SMILES | Difference from mice with a standard diet (normalization of the body weight) (after 6 weeks of treatment, mice with a high-fat diet compared with mice with a standard diet, Dunnett's t test) | Gain | Body weight after 6 weeks
CCCCCCCCCCC[C@@H](C[C@@H]1OC(=O)[C@H]1CCCCCC)OC(=O)[C@H](CC(C)C)NC=O (relative stereo) [orlistat, [2S-[2α(R*),3β]]-N-formyl-L-leucine 1-[(3-hexyl-4-oxo-2-oxetanyl)methyl]dodecyl ester] | significant difference | 7.59 ± 0.28* | 27.12 ± 0.39
CC(C)OC(=O)C(C)(C)Oc1ccc(C(=O)c2ccc(Cl)cc2)cc1 [fenofibrate] | – | 7.60 ± 0.43* | 27.25 ± 0.47

Source: patent US20070078179A1, “Use of a fibrate and orlistat for the treatment of obesity” (Foumier Laboratories Ireland Limited, priority 2003, published 2007)
